Test systems include OVCAR-4 ovarian; PC-3 prostate; SNB-19 CNS; HL-60(TB) leukemia; M14 melanoma; MOLT-4 leukemia; HT29 colon; SK-MEL-28 melanoma; CAKI-1 renal; HCC-2998 colon.
Common to all, as to assay: DTP human tumour cell line panel, 48 h

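All cell lines were grown in 96-well plates and treated with compound for 48 hours. The concentration for 50% growth inhibition is given as GI50. TGI marks complete inhibition of growth.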

With `c1ccc(C2=NNC3c4ccccc4-c4ccccc4N3C2)cc1` (stereo not given), the total growth inhibition concentration (TGI) in the test on OVCAR-4 ovarian was over 100 µM; with PC-3 prostate, 65.5 µM; with SNB-19 CNS it was over 100 µM; in the test with HL-60(TB) leukemia, 6.91 µM; in the test with M14 melanoma it was over 100 µM; in the test on MOLT-4 leukemia, 56.9 µM. Besides, the TGI in the test with HT29 colon, with SK-MEL-28 melanoma and in the test on CAKI-1 renal was over 100 µM in each case.
As to `O=C(Nc1ccc(Cl)cc1)c1cc(-c2ccc(F)cc2)c2sc(=O)[nH]c2n1`, the GI50 in the test with OVCAR-4 ovarian was 1.99 µM; in the test on PC-3 prostate, 0.65 µM; in the test with SNB-19 CNS it was 2.73 µM; in the test on HCC-2998 colon, 2.25 µM; with M14 melanoma, 1.88 µM; in the test on MOLT-4 leukemia, 0.721 µM. Besides, the GI50 is 3.02 µM in the test on HT29 colon, 1.39 µM in the test on SK-MEL-28 melanoma and 2.15 µM with CAKI-1 renal. The TGI in the test with OVCAR-4 ovarian was 9.12 µM; with PC-3 prostate it was 13.3 µM; with SNB-19 CNS, 16.2 µM; in the test on HCC-2998 colon, 10.9 µM; with M14 melanoma it was 5.13 µM; with MOLT-4 leukemia, 4.02 µM. For the same compound, the values for the TGI with HT29 colon, in the test with SK-MEL-28 melanoma and with CAKI-1 renal were 11.4 µM, 10.1 µM and 4.99 µM, respectively.
For the compound `Cc1cc(SCC(=O)c2ccccc2)nc2ccccc12`, the TGI in the test on OVCAR-4 ovarian, with PC-3 prostate, in the test with SNB-19 CNS, in the test on HL-60(TB) leukemia, in the test on M14 melanoma and in the test with MOLT-4 leukemia was over 100 µM each time. The TGI in the test on HT29 colon, with SK-MEL-28 melanoma and in the test with CAKI-1 renal was over 100 µM throughout.
Regarding `O=C1NC(=O)c2ccc([N+](=O)[O-])c3cccc1c23`, the TGI in the test on OVCAR-4 ovarian was found to be 35.5 µM; in the test on PC-3 prostate it was 32 µM; in the test on SNB-19 CNS, 33.7 µM; with HCC-2998 colon, 52.3 µM; in the test on M14 melanoma, 28.4 µM; in the test with HT29 colon it was 39.3 µM. Further, the concentration for total growth inhibition (TGI) was found to be 37.8 µM in the test with SK-MEL-28 melanoma and 39 µM in the test on CAKI-1 renal.
Turning to `O=C(CCl)Nc1ccc(Cl)cc1`, the GI50 in the test on OVCAR-4 ovarian is 5.68 µM; with PC-3 prostate it was 7.36 µM; in the test on SNB-19 CNS, 10.3 µM; with HCC-2998 colon, 11.3 µM; with M14 melanoma, 4.45 µM; with HT29 colon, 2.03 µM. In addition, the figures for the GI50 in the test with SK-MEL-28 melanoma and with CAKI-1 renal were 9.31 µM and 1.59 µM, respectively. For the same compound, the TGI in the test with OVCAR-4 ovarian was found to be 25.3 µM; with PC-3 prostate, 23.7 µM; in the test on SNB-19 CNS it was 25.6 µM; in the test on HCC-2998 colon, 24.9 µM; in the test with M14 melanoma, 17 µM; with HT29 colon, 4.26 µM. For the same compound, the values for the TGI in the test with SK-MEL-28 melanoma and with CAKI-1 renal were 22.1 µM and 3.31 µM, respectively.
On to `CCN(CC)CCCC(C)Nc1c(C)cnc2cc(Cl)c(C)cc12` (stereo not given), for which the GI50 with OVCAR-4 ovarian is 10.2 µM; in the test on PC-3 prostate it was 9.69 µM; in the test on SNB-19 CNS, 17.7 µM; in the test with HL-60(TB) leukemia it was 3.19 µM; in the test on M14 melanoma, 1.76 µM; in the test on MOLT-4 leukemia it was 0.845 µM. Moreover, the GI50 was 2.72 µM in the test with HT29 colon, 2.49 µM with SK-MEL-28 melanoma and 10 µM in the test with CAKI-1 renal. In addition, the TGI in the test on OVCAR-4 ovarian worked out at 35.7 µM; in the test on PC-3 prostate it was 26.4 µM; in the test on SNB-19 CNS, 50.6 µM; in the test with HL-60(TB) leukemia, 21.2 µM; in the test on M14 melanoma it was 3.19 µM; in the test on MOLT-4 leukemia, 8.27 µM. For the same compound, the concentration for total growth inhibition (TGI) was over 24.8 µM with HT29 colon, 8.99 µM with SK-MEL-28 melanoma and 26.6 µM in the test on CAKI-1 renal.
For `CC12CCCC(O)C1CCC1=CC3(CCC12)SCCS3` (stereo not given), the TGI with OVCAR-4 ovarian, in the test on PC-3 prostate, in the test with SNB-19 CNS, in the test with HCC-2998 colon, in the test with M14 melanoma and in the test with HT29 colon was over 10 µM throughout. Also, the TGI in the test on SK-MEL-28 melanoma and in the test with CAKI-1 renal was over 10 µM each time.
`CCOC(=O)c1cc(/C(=N\O)c2cc(OC)c(OC)c(OC)c2)n2cc(C)cc(C)c12`: the GI50 in the test with OVCAR-4 ovarian is 1.95 µM; in the test with PC-3 prostate it was 3.33 µM; in the test on SNB-19 CNS it was 4.57 µM; in the test with HCC-2998 colon, 5.78 µM; with HL-60(TB) leukemia, 2.28 µM; with M14 melanoma, 2.08 µM. Also, the GI50 is 3.08 µM with HT29 colon and 2.36 µM in the test with CAKI-1 renal. In addition, the TGI in the test with OVCAR-4 ovarian was 5.1 µM; with PC-3 prostate, over 100 µM; with SNB-19 CNS, over 100 µM; with HCC-2998 colon, over 100 µM; in the test with HL-60(TB) leukemia it was 7.57 µM; with M14 melanoma, 6.45 µM. Further, the TGI in the test with HT29 colon and with CAKI-1 renal was over 100 µM in each case.
On to `CN(C)c1ccc(N)cc1`, for which the GI50 was 1.74 µM in the test on OVCAR-4 ovarian; 3.53 µM with PC-3 prostate; 4.35 µM with SNB-19 CNS; 4.44 µM in the test on HCC-2998 colon; 4.66 µM in the test on M14 melanoma; 3.04 µM in the test with HT29 colon. For the same compound, the GI50 is 7.81 µM in the test on SK-MEL-28 melanoma and 5.6 µM in the test with CAKI-1 renal. The TGI is 3.45 µM in the test on OVCAR-4 ovarian; 21.8 µM in the test with PC-3 prostate; over 100 µM in the test with SNB-19 CNS; 21.2 µM in the test on HCC-2998 colon; 16.3 µM in the test with M14 melanoma; 10.8 µM in the test with HT29 colon. The TGI was found to be 22.3 µM with SK-MEL-28 melanoma and 30.9 µM in the test on CAKI-1 renal.
As for `CC(=O)OC1=NN=C2COC(c3ccccc3OC(C)=O)=NN2C1`, the TGI with OVCAR-4 ovarian, in the test on PC-3 prostate, in the test on SNB-19 CNS, in the test with HCC-2998 colon, in the test on HL-60(TB) leukemia and in the test with M14 melanoma was over 50 µM in each case. Moreover, the total growth inhibition concentration (TGI) with HT29 colon, in the test on SK-MEL-28 melanoma and in the test on CAKI-1 renal was over 50 µM in each case.
With `CCN(CC)CCN1CC(O)=C(c2nc(-c3ccc(Cl)cc3)cs2)C1=N`, the GI50 in the test on OVCAR-4 ovarian was 18.3 µM; in the test on PC-3 prostate, 6.8 µM; with SNB-19 CNS, 2.1 µM; with HCC-2998 colon it was 1.95 µM; with HL-60(TB) leukemia, 1.5 µM; in the test on MOLT-4 leukemia, 1.87 µM. Moreover, the GI50 was 2 µM in the test with HT29 colon, 1.86 µM in the test with SK-MEL-28 melanoma and 1.98 µM in the test with CAKI-1 renal. Further, the TGI in the test with OVCAR-4 ovarian is over 100 µM; in the test with PC-3 prostate it was over 100 µM; in the test on SNB-19 CNS it was 4.5 µM; in the test on HCC-2998 colon, 3.91 µM; in the test on HL-60(TB) leukemia, 3.5 µM; in the test on MOLT-4 leukemia, 4.42 µM. Moreover, the results for the TGI in the test with HT29 colon, in the test on SK-MEL-28 melanoma and with CAKI-1 renal were 6.27 µM, 3.49 µM and 6.72 µM, respectively.

In general, TGI refers to the concentration giving total growth inhibition. Lower therefore signals greater sensitivity of the cells. For orientation: GI50 means the concentration giving 50% growth inhibition.

The values above are taken from PubChem BioAssay (NCI).
